Experimental data as given in patent US6589967B1, “Oxime O-ether compounds and fungicides for agricultural and horticultural use” (Nippon Soda Co. Ltd., priority 1999, dated 2003).

tested on: snap bean gray mold fungus (Botrytis cinerea); assay: Test on Kidney Bean Gray Mold Control; assay type: in vivo; conditions: 50 ppm active ingredient, cut Kidney bean flowers (Nagauzura) dipped, spores sprayed, placed on detached leaves, 7 days at 20° C., high humidity
Experimental: Now, explanation is made on how the compounds according to the present invention are effective as an active ingredient of a fungicide for controlling various plant diseases with reference to Test examples described later. In the Test Examples, the control efficacy is determined by visually checking the infested state of the test plants at the time of observation, namely, checking the damage to the host plants and the developing state of the disease-causing fungus appeared on leaves, stems, etc. of the test plants, compared to the control test plants which are healthy. Flowers of Kidney bean (variety; Nagauzura) grown in a flat vessel for culturing seedlings are cut, and the cut flowers were dipped into a solution prepared by diluting the emulsifiable concentrate prepared for the compound of the present invention at a concentration of 50 ppm based on the active ingredient. After the dipping, the flowers were dried at a room temperature. Then, spore solution of snap bean gray mold fungus (Botrytis cinerea) was sprayed to the flowers. The flowers sprayed with spores of the gray mold fungus were placed on the leaves which were detached from healthy Kidney bean plants, and those leaves were placed in a room being maintained at 20° C. and high humidity with repeated lighting of 12 hours intervals, and the Kidney bean leaves were incubated in the room for 7 days. Then, the infestation degree by the fungus on the leaves was checked in comparison to the control healthy leaves to determine the control efficacy. […] Note that the compound numbers in the following correspond to the same compound numbers in the Table 1. Compound Nos. 1, 3, 6, 7, 11, 12, 13, 14, 15, 18, 20, 21, 22, 23, 25, 26, 27, 29, 36, 48, 49, 192, 194, 195, 196, 198, 201, 203, 204, 207, 208, 209, 210, 213, 216, 219, 220, 222, 223, 224, 225, 227, 228, 229, 231, 233, 234, 235, 236, 237, 239, 240, 242

Row | SMILES | control performance (control efficacy)
1 | COc1ccc(CON=C(C)c2cc(C)cc(C)n2)c(OC)c1 [Compound No. 13, 1-(4,6-Dimethyl-2-pyridinyl)ethanone O-[(2,4-Dimethoxyphenyl)methyl] Oxime] | excellent control performance
2 | COCOc1cc(C)ccc1CON=C(C)c1cc(C)cc(C)n1 [compound 192] | excellent control performance
3 | COCOc1c(C)cccc1CON=C(C)c1cc(C)cc(C)n1 [compound 194] | excellent control performance
4 | C=Cc1cccc(OC)c1CON=Cc1cc(C)cc(C)n1 [compound 210] | excellent control performance
5 | COc1cccc(OC)c1CON=C(C)c1cc(Cl)cc(C)n1 [Compound No. 18, 1-(4-Chloro-6-methyl-2-pyridinyl)ethanone O-[(2,6-Dimethoxyphenyl)methyl] Oxime] | excellent control performance
6 | COCOc1ccc(OC)cc1CON=C(C)c1cc(C)cc(C)n1 [compound 12] | excellent control performance
7 | COc1ccc(O)c(CON=C(C)c2cc(C)cc(C)n2)c1 [Compound No. 21] | excellent control performance
8 | COc1cccc(Br)c1CON=Cc1cc(C)cc(C)n1 [Compound No. 234, 4,6-Dimethyl-2-pyridinecarboxyaldehyde O-[(2-Methoxy-6-bromophenyl)methyl]oxime] | excellent control performance
9 | COc1ccc(OC)c(CON=C(C)c2cc(C)cc(C)n2)c1 [Compound No. 22] | excellent control performance
10 | COc1cc(OC)c(CON=Cc2cc(C)cc(C)n2)c(OC)c1 [Compound No. 233, 4,6-Dimethyl-2-pyridinecarboxyaldehyde O-[(2,4,6-Trimethoxyphenyl)methyl]oxime] | excellent control performance
11 | COc1cccc(CON=C(C)c2cc(C)cc(C)n2)c1O [Compound No. 25, 1-(4,6-Dimethyl-2-pyridinyl)ethanone O-[(2-hydroxy-3-methoxyphenyl)methyl] Oxime] | excellent control performance
12 | COc1cccc(OC)c1CON=Cc1cc(C)cc(C)n1.Cl [compound 236] | excellent control performance
13 | COc1ccc(C)c(OC)c1CON=Cc1cc(C)cc(C)n1 [compound 240] | excellent control performance
14 | COc1cccc(OC)c1C(C)ON=C(C)c1cc(C)cc(C)n1 (centres unmarked) [compound 11] | excellent control performance
15 | COc1cccc(OC)c1CON=C(C)c1cc(C)cc(C)n1 [compound 195] | excellent control performance
16 | COc1cc(Cl)cc(OC)c1CON=Cc1cc(C)cc(C)n1 [compound 213] | excellent control performance
17 | COc1cccc(OC)c1CON=Cc1ccccn1 [compound 231] | excellent control performance
18 | COc1cccc(F)c1CON=Cc1cc(C)cc(C)n1 [compound 204] | excellent control performance
19 | COc1cccc(CON=C(C)c2cc(C)cc(C)n2)c1OC(C)=O [compound 207] | excellent control performance
20 | COc1ccc(F)c(F)c1CON=C(C)c1cc(C)cc(C)n1 [compound 198] | excellent control performance
21 | COc1cc(F)cc(OC)c1CON=Cc1cc(C)cc(C)n1 [compound 216] | excellent control performance
22 | COc1c(F)ccc(F)c1CON=C(C)c1cc(C)cc(C)n1 [compound 201] | excellent control performance

Row | SMILES | control performance (control efficacy)
23 | COc1cc(C)ccc1CON=C(C)c1cc(C)cc(C)n1 [compound 15] | excellent control performance
24 | CC(=NOCc1ccc(C)cc1O)c1cc(C)cc(C)n1 [compound 49] | excellent control performance
25 | COc1cccc(OC)c1CON=Cc1cc(Br)cc(C)n1 [compound 229] | excellent control performance
26 | COc1ccc(C)cc1CON=C(C)c1cc(C)cc(C)n1 [compound 26] | excellent control performance
27 | COc1cccc(C)c1CON=Cc1cc(C)cc(C)n1 [compound 203] | excellent control performance
28 | COc1cccc(OC)c1CON=Cc1cc(Cl)cc(C)n1 [Compound No. 219, 4-Chloro-6-methyl-2-pyridinecarboxyaldehyde O-[(2,6-Dimethoxyphenyl)methyl] Oxime] | excellent control performance
29 | COCOc1cccc(OC)c1CON=C(C)c1cc(C)cc(C)n1 [Compound No. 23] | excellent control performance
30 | CCc1cccc(OC)c1CON=C(C)c1cc(C)cc(C)n1 [compound 27] | excellent control performance
31 | COc1cccc(OC)c1CON=Cc1cccc(C)n1 [compound 228] | excellent control performance
32 | COc1cccc(N(C)C)c1CON=Cc1cc(C)cc(C)n1 [Compound No. 225, 4,6-dimethyl-2-pyridinecarboxyaldehyde O-[(2-methoxy-6-dimethylaminophenyl)methyl] oxime] | excellent control performance
33 | COc1cccc(Cl)c1CON=C(C)c1cc(C)cc(C)n1 [compound 29] | excellent control performance
34 | COc1cccc(N)c1CON=Cc1cc(C)cc(C)n1 [Compound No. 222, 4,6-Dimethyl-2-pyridinecarboxyaldehyde O-[(2-Methoxy-6-aminophenyl)methyl] Oxime] | excellent control performance
35 | CNc1cccc(OC)c1CON=Cc1cc(C)cc(C)n1 [Compound No. 223, 4,6-Dimethyl-2-pyridinecarboxyaldehyde O-[(2-Methoxy-6-methylaminophenyl)methyl] Oxime] | excellent control performance
36 | COc1cccc(OC(C)=O)c1CON=Cc1cc(C)cc(C)n1 [compound 227] | excellent control performance
37 | COc1ccc(Cl)c(OC)c1CON=C(C)c1cc(C)cc(C)n1 [compound 3] | excellent control performance
38 | COCc1cccc(OC)c1CON=Cc1cc(C)cc(C)n1 [compound 237] | excellent control performance
39 | COc1cc(F)c(CON=Cc2cc(C)cc(C)n2)c(OC)c1 [compound 224] | excellent control performance
40 | COc1ccc(Cl)c(OC)c1CON=Cc1cc(C)cc(C)n1 [compound 242] | excellent control performance
41 | C#Cc1cccc(OC)c1CON=Cc1cc(C)cc(C)n1 [Compound No. 235, 4,6-Dimethyl-2-pyridinecarboxyaldehyde O-[(2-Methoxy-6-ethynylphenyl)methyl]oxime] | excellent control performance
42 | COc1cc(C)cc(OC)c1CON=C(C)c1cc(C)cc(C)n1 [compound 209] | excellent control performance
43 | COc1cc(C)cc(OC)c1CON=Cc1cc(C)cc(C)n1 [compound 208] | excellent control performance
44 | COCOc1cc(OC)ccc1CON=C(C)c1cc(C)cc(C)n1 [compound 6] | excellent control performance
